This is an account of results in US8703805B2 (Exelixis Patent Company LLC, priority 2005, dated 2014).

Structures are written as SMILES.

This assay relates to LXRα and/or LXRβ. Put plainly: LXR/LXRE co-transfection assay (luciferase reporter, CV-1 cells). Format: cell-based, human. To be noted: IC50 or EC50 for LXR (LXRα and/or LXRβ, not distinguished), tested as described in Example 109, CV-1 cells. The procedure, abridged: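 Luciferase readout after 20 h compound exposure at 37 °C in CV-1 cells transiently expressing human LXRα or LXRβ with RXRα and an LXRE-driven reporter. Dose-response over 8 points at ½-log spacing, 4 wells each, fitted for EC50/IC50; values average ≥3 independent experiments, efficacy as % of high control.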
For orientation: A reporter such as luciferase makes a cellular process visible.
The term EC50 denotes the concentration at which the effect is half-maximal. Read a high EC50 as lower potency in that assay. `CC(C)S(=O)(=O)c1cccc(-c2ccc(-c3cc(C(C)(C)O)nn3-c3ccccc3Cl)s2)c1` [Example 1185, 2-[1-(2-chlorophenyl)-5-(5-{3-[(1-methylethyl)sulfonyl]phenyl}-2-thienyl)-1H-pyrazol-3-yl]propan-2-ol] showed a half-maximal effective concentration (EC50) of under 1000 nM.

`CC(C)(O)c1nn(-c2ccncc2Cl)c(-c2ccc(-c3cccc(S(C)(=O)=O)c3)s2)c1Cl` [Example 125, 2-(4-chloro-1-(3-chloropyridin-4-yl)-5-(5-(3-(methylsulfonyl)phenyl)thiophen-2-yl)-1H-pyrazol-3-yl)propan-2-ol] had an EC50 of under 1000 nM.

The molecule `CC(C)(O)c1cc(-c2ccc(-c3cccc(S(C)(=O)=O)c3)s2)n(-c2ncccc2C(F)(F)F)n1` [Example 1178, 2-(5-{5-[3-(methylsulfonyl)phenyl]-2-thienyl}-1-[3-(trifluoromethyl)pyridin-2-yl]-1H-pyrazol-3-yl)propan-2-ol] gave a 50% effective concentration (EC50) of under 1000 nM.

In turn, `COC(=O)c1cc(-c2ccc(-c3cccc(S(C)(=O)=O)c3)s2)n(-c2c(Cl)cccc2Cl)n1` [Example 1238, methyl 1-(2,6-dichlorophenyl)-5-{5-[3-(methylsulfonyl)phenyl]-2-thienyl}-1H-pyrazole-3-carboxylate] came in with an EC50 of under 1000 nM.

Consider `CC(C)(O)c1nn(-c2cccnc2C(F)(F)F)c(-c2ccc(-c3cccc(S(C)(=O)=O)c3)cc2Cl)c1Cl` [Example 1387, 2-(4-chloro-5-(3-chloro-3′-(methylsulfonyl)biphenyl-4-yl)-1-(2-(trifluoromethyl)pyridin-3-yl)-1H-pyrazol-3-yl)propan-2-ol], for which the EC50 is under 1000 nM.

In turn, `CS(=O)(=O)c1cccc(-c2ccc(-c3cc(C(=O)NCC(F)(F)F)nn3-c3ccccc3C(F)(F)F)s2)c1` [Example 1195, 5-{5-[3-(methylsulfonyl)phenyl]-2-thienyl}-N-(2,2,2-trifluoroethyl)-1-[2-(trifluoromethyl)phenyl]-1H-pyrazole-3-carboxamide] registered an EC50 of under 1000 nM.

Take `Cc1cccc(Cl)c1-n1nc(C(C)(C)O)cc1-c1ccc(-c2cccc(S(C)(=O)=O)c2)s1` [Example 1335, 2-[1-(2-chloro-6-methylphenyl)-5-{5-[3-(methylsulfonyl)phenyl]-2-thienyl}-1H-pyrazol-3-yl]propan-2-ol]: the EC50 was under 1000 nM.

In turn, `CS(=O)(=O)c1cccc(-c2ccc(-n3nc(C(O)(C(F)(F)F)C(F)(F)F)cc3-c3ccccc3Cl)cc2)c1` [Example 1225, 2-{5-(2-chlorophenyl)-1-[3′-(methylsulfonyl)biphenyl-4-yl]-1H-pyrazol-3-yl}-1,1,1,3,3,3-hexafluoropropan-2-ol] registered an EC50 of under 1000 nM.

Molecule `CC(C)(O)c1cc(-c2ccc(C(=O)N3CCC3)cc2)n(-c2ccccc2Cl)n1` [Example 80] had an EC50 of over 10000 nM.

The molecule `Cc1cc(-c2cccc(S(C)(=O)=O)c2)ccc1-n1nc(C(C)(C)O)c(Cl)c1-c1ccccc1Cl` [Example 1422, 2-(4-chloro-5-(2-chlorophenyol)-1-(3-methyl-3′-(methylsulfonyl)biphenyl-4-yl)-1H-pyrazol-3-yl)propan-2-ol] registered an EC50 of under 1000 nM.

Molecule `Cc1cc(-c2cccc(S(C)(=O)=O)c2)ccc1-c1cc(C(C)(C)O)nn1-c1cccnc1C(F)(F)F` [Example 1390, 2-(5-(3-methyl-3′-(methylsulfonyl)biphenyl-4-yl)-1-(2-(trifluoromethyl)pyridin-3-yl)-1H-pyrazol-3-yl)propan-2-ol] showed an EC50 of under 1000 nM.

Turning to `CS(=O)(=O)c1cccc(-c2ccc(-c3cc(C4(O)CCCC4)nn3-c3ccccc3Cl)s2)c1` [Example 1228, 1-[1-(2-chlorophenyl)-5-{5-[3-(methylsulfonyl)phenyl]-2-thienyl}-1H-pyrazol-3-yl]cyclopentanol], the EC50 was under 1000 nM.

In turn, `Cc1cc(-c2cccc(S(C)(=O)=O)c2)ccc1-c1c(Cl)c(C(C)(C)O)nn1-c1cnccc1C(F)(F)F` [Example 107, 2-(4-chloro-5-(3-methyl-3′-(methylsulfonyl)biphenyl-4-yl)-1-(4-(trifluoromethyl)pyridin-3-yl)-1H-pyrazol-3-yl)propan-2-ol] came in with an EC50 of under 1000 nM.

In the case of `CC(C)(O)c1cc(-c2ccc(-c3cccc(S(C)(=O)=O)c3)cc2)n(-c2ccccc2C(F)(F)F)n1` [Example 1201, 2-{5-[3′-(methylsulfonyl)biphenyl-4-yl]-1-[2-(trifluoromethyl)phenyl]-1H-pyrazol-3-yl}propan-2-ol], the EC50 is under 1000 nM.

Turning to `CC(C)(O)c1nn(-c2ccccc2C(F)(F)F)c(-c2ccc(-c3cccc(S(C)(=O)=O)c3)s2)c1Br` [Example 1349, 2-(4-bromo-5-{5-[3-(methylsulfonyl)phenyl]-2-thienyl}-1-[2-(trifluoromethyl)phenyl]-1H-pyrazol-3-yl)propan-2-ol], the EC50 was under 1000 nM.

In turn, `CC(=O)c1cc(-c2ccccc2Cl)n(-c2ccc(-c3cccc(S(C)(=O)=O)c3)nc2)n1` [Example 1249, 1-[5-(2-chlorophenyl)-1-{6-[3-(methylsulfonyl)phenyl]pyridin-3-yl}-1H-pyrazol-3-yl]ethanone] returned an EC50 of 1000 to 10000 nM.

Molecule `CCc1ccccc1-n1nc(C(C)(C)O)cc1-c1ccc(-c2cccc(S(C)(=O)=O)c2)s1` [Example 1329, 2-[1-(2-ethylphenyl)-5-{5-[3-(methylsulfonyl)phenyl]-2-thienyl}-1H-pyrazol-3-yl]propan-2-ol] returned a half-maximal effective concentration (EC50) of under 1000 nM.

As for `CS(=O)(=O)c1cccc(-c2ccc(-c3cc(C(F)(F)F)nn3-c3ccccc3S(N)(=O)=O)s2)c1` [Example 1131, 2-[5-{5-[3-(methylsulfonyl)phenyl]-2-thienyl}-3-(trifluoromethyl)-1H-pyrazol-1-yl]benzenesulfonamide], the EC50 is under 1000 nM.

For the molecule `CC(C)(O)c1cc(-c2ccc(-c3cccc(S(C)(=O)=O)c3)cn2)n(-c2ccccc2Cl)n1` [Example 119, 2-(1-(2-chlorophenyl)-5-(5-(3-(methylsulfonyl)phenyl)pyridin-2-yl)-1H-pyrazol-3-yl)propan-2-ol], the EC50 fell in the range of 1000 to 10000 nM.

Consider `COC(F)(F)c1cc(-c2ccc(-c3cccc(S(C)(=O)=O)c3)s2)n(-c2ccccc2C(F)(F)F)n1` [Example 1211, 3-[difluoro(methyloxy)methyl]-5-{5-[3-(methylsulfonyl)phenyl]-2-thienyl}-1-[2-(trifluoromethyl)phenyl]-1H-pyrazole], for which the EC50 was under 1000 nM.

`FC(F)(F)c1cc(-c2cccc(OCCN3CCOCC3)c2)n(-c2ccccc2Cl)n1` [Example 67, 4-(2-(3-(1-(2-chlorophenyl)-3-(trifluoromethyl)-1H-pyrazol-5-yl)phenoxy)-ethyl)morpholine] displayed an EC50 of 1000 to 10000 nM.

On to `CC(C)(O)c1cc(-c2ccc(-c3ccc(F)c(C(F)(F)F)c3)cc2)n(-c2ccccc2Cl)n1` [Example 1299, 2-{1-(2-chlorophenyl)-5-[4′-fluoro-3′-(trifluoromethyl)biphenyl-4-yl]-1H-pyrazol-3-yl}propan-2-ol], for which the EC50 was 1000 to 10000 nM.

`CCc1ccccc1-n1nc(C(C)(C)O)c(Br)c1-c1ccc(-c2cccc(S(C)(=O)=O)c2)s1` [Example 1358, 2-[4-bromo-1-(2-ethylphenyl)-5-{5-[3-(methylsulfonyl)phenyl]-2-thienyl}-1H-pyrazol-3-yl]propan-2-ol] yielded an EC50 of under 1000 nM.

Consider `C/C(=N\O)c1cc(-c2ccc(-c3cccc(S(C)(=O)=O)c3)s2)n(-c2ccccc2Cl)n1` [Example 1176, (1E)-1-[1-(2-chlorophenyl)-5-{5-[3-(methylsulfonyl)phenyl]-2-thienyl}-1H-pyrazol-3-yl]ethanone oxime], for which the EC50 is under 1000 nM.

`CS(=O)(=O)c1cccc(-c2ccc(-c3cc(C(=O)O)nn3-c3ccccc3C(F)(F)F)s2)c1` [Example 1193, 5-{5-[3-(methylsulfonyl)phenyl]-2-thienyl}-1-[2-(trifluoromethyl)phenyl]-1H-pyrazole-3-carboxylic acid]: the EC50 was in the range of 1000 to 10000 nM.

In turn, `CC(C)(O)c1cc(-c2ccc(-c3cccc(NS(C)(=O)=O)c3)cc2)n(-c2ccccc2Cl)n1` [Example 1309, N-{4′-[1-(2-chlorophenyl)-3-(1-hydroxy-1-methylethyl)-1H-pyrazol-5-yl]biphenyl-3-yl}methanesulfonamide] showed an EC50 of 1000 to 10000 nM.

`CC(C)S(=O)(=O)c1cccc(-c2ccc(-c3cc(C(F)(F)F)nn3-c3ccccc3C(F)(F)F)cc2)c1` [Example 1168, 5-{3′-[(1-methylethyl)sulfonyl)biphenyl-4-yl}-3-(trifluoromethyl)-1-[2-(trifluoromethyl)phenyl]-1H-pyrazole]: the EC50 was under 1000 nM.

Take `COC(=O)Cc1ccc(-c2ccc(-c3cc(C(F)(F)F)nn3-c3ncccc3C(F)(F)F)s2)c(C)c1` [Example 1153, methyl [3-methyl-4-(5-{3-(trifluoromethyl)-1-[3-(trifluoromethyl)pyridin-2-yl]-1H-pyrazol-5-yl}-2-thienyl)phenyl]acetate]: the EC50 is 1000 to 10000 nM.

On to `Cc1cc(-c2cccc(S(C)(=O)=O)c2)ccc1-n1nc(C(C)(C)O)cc1-c1cccc(F)c1F` [Example 116, 2-(5-(2,3-difluorophenyl)-1-(3-methyl-3′-(methylsulfonyl)biphenyl-4-yl)-1H-pyrazol-3-yl)propan-2-ol], for which the EC50 was under 1000 nM.

For `CCc1ccccc1-n1nc(C(C)(C)O)c(Cl)c1-c1ccc(-c2cccc(S(C)(=O)=O)c2)s1` [Example 1373, 2-[4-chloro-1-(2-ethylphenyl)-5-{5-[3-(methylsulfonyl)phenyl]-2-thienyl}-1H-pyrazol-3-yl]propan-2-ol], the EC50 is under 1000 nM.

Molecule `CC(C)(O)c1cc(-c2ccc(-c3cc(C(F)(F)F)nn3-c3cc(Cl)ccc3Cl)s2)cc(S(C)(=O)=O)c1` [Example 1308, 2-[3-{5-[1-(2,5-dichlorophenyl)-3-(trifluoromethyl)-1H-pyrazol-5-yl]-2-thienyl}-5-(methylsulfonyl)phenyl]propan-2-ol] showed an EC50 of under 1000 nM.
